Assay results as given in paper PMC4965013, “Open Source Drug Discovery with the Malaria Box Compound Collection for Neglected Diseases and Beyond” (PLoS Pathogens, 2016).
Several values for one entry are separate records, joined by “and”; a condition that tells them apart may be missing. Identical values can stand only once.

What was measured:
[1] = system: Leishmania infantum MHOM/MA/BE/67; details: Run 1 and Run 2; ref [88]; read-out: L. infantum IC50 positive control; cited from earlier work
[2] = system: Toxoplasma gondii TS-4; details: ref [46]; cited from earlier work
[3] = system: Trypanosoma brucei rhodesiense STIB 900; details: Run 1 and Run 2; ref [88]; read-out: T. rhodesiense IC50 positive control; cited from earlier work
[4] = system: T. b. brucei Squib 427; details: Run 1 and Run 2; ref [88]; read-out: T. brucei brucei IC50 positive control; cited from earlier work
[5] = biological target: T1, PfA-M1 (Plasmodium falciparum, UniProt O96935); assay: rPfA-M1 aminopeptidase activity (Florent); format: biochemical, P. falciparum; details: for effect on rPfA-M1 in words: 100µM
T1 construct: encoding residues 192-1085 of native PfA-M1; hexahistidine (N); TEV cleavage site (ENLYFQS) (N); made in house; host or cells: Escherichia coli BL21 (DE3) Rosetta 2

[6] = biological target: T2, PfA-M17 (Plasmodium falciparum, UniProt Q8IL11); assay: rPfA-M17 aminopeptidase activity (Florent); format: biochemical, P. falciparum; details: for effect on rPfA-M17 in words: 100µM
T2 construct: residues 84-605 of native Plasmodium falciparum leucyl aminopeptidase PfA-M17 (PlasmoDB PF3D7_1446200); hexahistidine (N); TEV cleavage site (N); made in house; host or cells: Escherichia coli BL21 (DE3) Rosetta 2

[7] = system: Schistosoma mansoni schistosomula (somules); assay: S. mansoni somules phenotypic screen Caffrey; details: 2.5 µM, 48 h
[8] = system: Schistosoma mansoni adult males; assay: S. mansoni adult phenotypic and motility screen Caffrey
[9] = system: T. cruzi Tulahuen; details: ref [84]; read-out: Trypanosoma cruzi Tulahuen intracellular amastigotes in MRC5 cell line EC50; cited from earlier work
[10] = system: Neospora caninum Nc-1 tachyzoites; assay: Neospora caninum Nc-Betagal proliferation; format: cell-based
[11] = system: P. falciparum 3D7 trophozoites; assay: Metabolomic fingerprint profiling LC-MS; format: cell-based, Plasmodium falciparum; parameters: UDP-D-glucose / ADP-D-glucose: unit not given here
[12] = system: P. falciparum; assay: EC50 listed in S2 Table Metabolomics (used to set the concentration tested); format: cell-based; details: Plasmodium falciparum; EC50 used for Factor_XEC50 in metabolomics; read-out: EC50_nM
[13] = system: Atg8-Atg3; parameters: method as in ref [38] (a number printed in a supplementary file, which may have a reference list of its own: not looked up in the article's list); details: ref [38]; cited from earlier work
[14] = metabolite level change after treatment

T2 sequence (Q8IL11 84-605): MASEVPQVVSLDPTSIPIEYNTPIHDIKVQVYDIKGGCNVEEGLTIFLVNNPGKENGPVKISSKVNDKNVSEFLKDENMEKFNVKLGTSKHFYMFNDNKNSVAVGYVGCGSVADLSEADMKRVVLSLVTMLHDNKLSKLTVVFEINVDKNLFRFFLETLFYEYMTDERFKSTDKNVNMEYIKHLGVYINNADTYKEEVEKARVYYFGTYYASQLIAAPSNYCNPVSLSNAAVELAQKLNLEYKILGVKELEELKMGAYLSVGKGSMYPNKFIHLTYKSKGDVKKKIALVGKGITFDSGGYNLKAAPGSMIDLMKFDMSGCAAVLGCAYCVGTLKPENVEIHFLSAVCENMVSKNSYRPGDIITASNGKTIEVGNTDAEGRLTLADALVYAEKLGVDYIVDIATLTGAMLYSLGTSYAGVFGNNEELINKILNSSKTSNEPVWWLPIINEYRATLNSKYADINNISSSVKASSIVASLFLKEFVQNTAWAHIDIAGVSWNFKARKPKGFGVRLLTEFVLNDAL
T1 sequence (O96935 192-1085): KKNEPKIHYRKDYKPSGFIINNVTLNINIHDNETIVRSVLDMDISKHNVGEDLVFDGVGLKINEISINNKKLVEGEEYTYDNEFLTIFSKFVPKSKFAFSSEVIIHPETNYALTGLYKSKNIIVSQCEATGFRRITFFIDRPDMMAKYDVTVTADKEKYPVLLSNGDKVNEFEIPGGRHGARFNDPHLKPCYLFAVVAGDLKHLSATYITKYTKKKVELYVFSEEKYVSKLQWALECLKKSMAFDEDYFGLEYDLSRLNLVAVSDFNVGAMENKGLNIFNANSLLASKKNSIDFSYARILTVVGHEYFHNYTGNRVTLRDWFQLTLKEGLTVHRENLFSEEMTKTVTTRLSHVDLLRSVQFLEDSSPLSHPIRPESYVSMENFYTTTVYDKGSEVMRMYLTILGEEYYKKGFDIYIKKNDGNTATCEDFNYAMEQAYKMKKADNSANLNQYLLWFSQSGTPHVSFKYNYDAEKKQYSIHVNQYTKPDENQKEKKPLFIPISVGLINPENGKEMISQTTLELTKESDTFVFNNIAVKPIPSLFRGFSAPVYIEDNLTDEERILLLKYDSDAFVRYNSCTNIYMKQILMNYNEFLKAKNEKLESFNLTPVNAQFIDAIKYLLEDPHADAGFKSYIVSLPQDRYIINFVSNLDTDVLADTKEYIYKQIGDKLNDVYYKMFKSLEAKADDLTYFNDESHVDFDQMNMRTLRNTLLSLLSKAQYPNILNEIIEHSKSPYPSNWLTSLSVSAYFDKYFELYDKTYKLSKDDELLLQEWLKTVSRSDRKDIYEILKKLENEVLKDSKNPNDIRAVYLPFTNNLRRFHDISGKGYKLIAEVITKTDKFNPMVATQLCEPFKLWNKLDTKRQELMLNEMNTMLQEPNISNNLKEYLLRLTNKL

Question: With `CCCCCCCCCCCCCCCCOP(=O)([O-])OCC[N+](C)(C)C` [Miltefosine, reference compound] as the compound, how does the IC50 [1] read?
Answer: 7.1 µM and 9 µM

Question: Which “non-toxic compounds active against T. gondii” value (shortened to “non-toxic compounds active”) [2] does the source give for `CCCc1c(C)nc2ccc(Br)cc2c1O` [MMV666095] here?
Answer: active

Question: Which results are given for `Cc1ccc(C(=O)Nc2ccc(S(=O)(=O)O)c3cc(S(=O)(=O)O)cc(S(=O)(=O)O)c23)cc1NC(=O)c1cccc(NC(=O)Nc2cccc(C(=O)Nc3cc(C(=O)Nc4ccc(S(=O)(=O)O)c5cc(S(=O)(=O)O)cc(S(=O)(=O)O)c45)ccc3C)c2)c1` [Suramin, reference compound]?
Answer: IC50 [3]: 70 nM and 50 nM; IC50 [4]: 60 nM and 50 nM

Question: What does the source list for `COc1ccc(Nc2cc(C)nc(NCc3ccccc3)n2)cc1` [MMV006825]?
Answer: effect on rPfA-M1 in words [5]: particularly effective; effect on rPfA-M17 in words [6]: only moderately inhibiting

Question: With `O=C(Nc1ccc([N+](=O)[O-])cc1Cl)c1cc(Cl)ccc1O` [niclosamide] as the compound, how does the somule severity score [7] read?
Answer: 4

Question: What about the “S. mansoni adult males 48hr motility assay” value ([8]; 48 h, 5µM) of the same compound?
Answer: zero

Question: And the “S. mansoni adult males visual tox scale, 0 = none, 4=most damaged” value ([8]; 48hr at 5 µM)?
Answer: 4

Question: For `CCOc1ccccc1NC(=O)CN1CCN(C(=O)c2ccco2)CC1` [MMV007791], which “non-toxic compounds active” value [2] is on record?
Answer: active

Question: For `Clc1ccc2c(N3CCCC3)ccnc2c1` [MMV007363], which “non-toxic compounds active” value [2] is on record?
Answer: active

Question: Which “non-toxic compounds active” value [2] does the source give for `CCCCN(CCCC)S(=O)(=O)c1ccc(NC(=O)c2ccco2)cc1` [MMV007881] here?
Answer: active

Question: With `CCOc1cccc2sc(N(Cc3cccnc3)C(=O)C3CCCCC3)nc12` [MMV001230] as the compound, how does the EC50 [9] read?
Answer: 156 nM

Question: With `CCOc1ccc2cc(-c3nn(CC4CCN(C)CC4)c4ncnc(N)c34)ccc2c1` [BKI-1294, reference compound] as the compound, how does the “N. caninum proliferation, positive control” value ([10]; 1µM) read?
Answer: complete block of proliferation

Question: What does the source list for `COc1ccc(C2c3ccc4ccccc4c3Oc3ncn(CCCn4ccnc4)c(=N)c32)cc1OC` (centres unmarked) [MMV667490]?
Answer: effect on rPfA-M1 in words [5]: particularly effective; effect on rPfA-M17 in words [6]: only moderately inhibiting

Question: Which results are given for `CN(C)c1ccc(C=Cc2nc(=O)c3ccccc3o2)cc1` [MMV006309]?
Answer: Acetyllysine ([11]; S2 Table Metabolomics, metabolite Acetyllysine): -0.06229; N-acetyl-L-ornithine ([11]; S2 Table Metabolomics, metabolite N-acetyl-L-ornithine): 0.06709; N-carbamoyl-L-aspartate ([11]; S2 Table Metabolomics, metabolite N-carbamoyl-L-aspartate): 2.985; NADPH ([11]; S2 Table Metabolomics, metabolite NADPH): -0.04695; dAMP ([11]; S2 Table Metabolomics, metabolite dAMP): -0.4457; dCMP ([11]; S2 Table Metabolomics, metabolite dCMP): 0.07949; dTDP ([11]; S2 Table Metabolomics, metabolite dTDP): -0.6452; dTMP ([11]; S2 Table Metabolomics, metabolite dTMP): -0.3602; dTTP ([11]; S2 Table Metabolomics, metabolite dTTP): -0.2468; dihydroorotate ([11]; S2 Table Metabolomics, metabolite dihydroorotate): 3.691; orotate ([11]; S2 Table Metabolomics, metabolite orotate): -0.6105; DLH ([11]; S2 Table Metabolomics, peptide DLH): -0.3184; DLS/SDL/SID ([11]; S2 Table Metabolomics, peptide DLS/SDL/SID): -0.2456; PD ([11]; S2 Table Metabolomics, peptide PD): 0.4341; PEE ([11]; S2 Table Metabolomics, peptide PEE): -0.1161; PVNF ([11]; S2 Table Metabolomics, peptide PVNF): -0.4902; 3-phosphoglycerate ([11]; metabolite 3-phosphoglycerate, S2 Table Metabolomics): -0.1315; ADP-D-glucose ([11]; metabolite ADP-D-glucose, S2 Table Metabolomics): 0.1572; ATP ([11]; metabolite ATP, S2 Table Metabolomics): 0.2918; CDP ([11]; metabolite CDP, S2 Table Metabolomics, change in metabolite level after compound treatment): -0.5525; D-sedoheptulose-1/7-phosphate ([11]; metabolite D-sedoheptulose-1/7-phosphate, S2 Table Metabolomics, change in metabolite level after compound treatment): 0.4312; FAD ([11]; metabolite FAD, S2 Table Metabolomics): 0.6491; GMP ([11]; metabolite GMP, S2 Table Metabolomics, change in metabolite level after compound treatment): 2.281; NAD+ ([11]; metabolite NAD+, S2 Table Metabolomics): 0.2407; NADP+ ([11]; metabolite NADP+, S2 Table Metabolomics): 0.05923; Octoluse Bisphosphate ([11]; metabolite Octoluse Bisphosphate, S2 Table Metabolomics, change in metabolite level after compound treatment): 0.03854; Pyroglutamic acid ([11]; metabolite Pyroglutamic acid, S2 Table Metabolomics): -0.251; UDP-D-glucose ([11]; metabolite UDP-D-glucose, S2 Table Metabolomics): 0.2158; UDP-D-glucuronate ([11]; metabolite UDP-D-glucuronate, S2 Table Metabolomics): 0.1905; UDP-N-acetyl-glucosamine ([11]; metabolite UDP-N-acetyl-glucosamine, S2 Table Metabolomics): 0.2147; UDP ([11]; metabolite UDP, S2 Table Metabolomics, change in metabolite level after compound treatment): -0.5733; UMP ([11]; metabolite UMP, S2 Table Metabolomics, change in metabolite level after compound treatment): -0.8586; UTP ([11]; metabolite UTP, S2 Table Metabolomics, change in metabolite level after compound treatment): -0.4965; a-ketoglutarate ([11]; metabolite a-ketoglutarate, S2 Table Metabolomics): -0.2334; citrate/isocitrate ([11]; metabolite citrate/isocitrate, S2 Table Metabolomics, change in metabolite level after compound treatment): -0.148; cytidine ([11]; metabolite cytidine, S2 Table Metabolomics): 0.1715; dATP ([11]; metabolite dATP, S2 Table Metabolomics): 0.5165; dGMP/AMP ([11]; metabolite dGMP/AMP, S2 Table Metabolomics, change in metabolite level after compound treatment): -0.4086; fumarate ([11]; metabolite fumarate, S2 Table Metabolomics, change in metabolite level after compound treatment): 0.4652; glucose-1/6-phosphate ([11]; metabolite glucose-1/6-phosphate, S2 Table Metabolomics, change in metabolite level after compound treatment): 0.457; glycerate ([11]; metabolite glycerate, S2 Table Metabolomics, change in metabolite level after compound treatment): 0.3869; guanine ([11]; metabolite guanine, S2 Table Metabolomics, change in metabolite level after compound treatment): 0.4747; guanosine ([11]; metabolite guanosine, S2 Table Metabolomics, change in metabolite level after compound treatment): 0.5548; hypoxanthine ([11]; metabolite hypoxanthine, S2 Table Metabolomics): -0.07215; indole ([11]; metabolite indole, S2 Table Metabolomics): -0.02242; inosine ([11]; metabolite inosine, S2 Table Metabolomics, change in metabolite level after compound treatment): 0.08258; 2_3-Diphosphoglyceric acid [11, 14]: 0.3655; 4-phosphopantothenate [11, 14]: -0.02209; 6-phospho-D-gluconate [11, 14]: 0.4028; FMN [11, 14]: 0.2378; IMP [11, 14]: -0.05126; Pyrophosphate [11, 14]: 0.2614; Sedoheptoluse bisphosphate [11, 14]: 0.2668; cyclic-AMP [11, 14]: 0.09044; glutathione disulfide [11, 14]: 0.5032; lactate [11, 14]: 0.1016; myo-inositol [11, 14]: 0.2436; nicotinate ([11]; metabolite nicotinate, S2 Table Metabolomics): 0.1263; ornithine ([11]; metabolite ornithine, S2 Table Metabolomics): -0.005843; phosphoenolpyruvate ([11]; metabolite phosphoenolpyruvate, S2 Table Metabolomics): -0.2041; pyruvate ([11]; metabolite pyruvate, S2 Table Metabolomics, change in metabolite level after compound treatment): -0.06331; ribose-phosphate ([11]; metabolite ribose-phosphate, S2 Table Metabolomics): -0.02548; sarcosine/alanine ([11]; metabolite sarcosine/alanine, S2 Table Metabolomics, change in metabolite level after compound treatment): 0.5971; sn-glycerol-3-phosphate ([11]; metabolite sn-glycerol-3-phosphate, S2 Table Metabolomics): -0.04439; succinate/methylmalonic acid ([11]; metabolite succinate/methylmalonic acid, S2 Table Metabolomics, change in metabolite level after compound treatment): 0.1372; uridine ([11]; metabolite uridine, S2 Table Metabolomics, change in metabolite level after compound treatment): -0.2519; xanthosine ([11]; metabolite xanthosine, S2 Table Metabolomics, change in metabolite level after compound treatment): 0.3479; non-toxic N. caninum actives [10]: non-toxic N. caninum actives; EC50 [12]: 51.5 nM

Question: With `O=C(Nc1nc(-c2ccccn2)cs1)c1ccccc1Br` [MMV665909] as the compound, how does the “PPI inhibitors of Atg8-Atg3 interaction” value [13] read?
Answer: PPI inhibitors

Question: For `Cc1ccc(NC(=O)Nc2cccc(Cl)c2)cc1F` [MMV000911], which “non-toxic N. caninum actives” value [10] is on record?
Answer: non-toxic N. caninum actives

Question: With `CN(C)c1ccc(-c2nc3cc(N)ccc3[nH]2)cc1` [MMV666102] as the compound, how does the “effect on rPfA-M1 in words” value [5] read?
Answer: particularly effective

Question: Which results are given for `CC(C)C[C@H](NC(=O)[C@@H](O)[C@H](N)Cc1ccccc1)C(=O)O` [bestatin, reference compound]?
Answer: inhibition at 100 µM [5]: 57%; inhibition at 100 µM [6]: 100%

Question: Which “non-toxic compounds active” value [2] does the source give for `CN(C)CCNc1cc(-c2ccccc2)nc2ccccc12` [MMV006704] here?
Answer: active

Question: Which “non-toxic N. caninum actives” value [10] does the source give for `O=C(Nc1ccc(N2CCN(Cc3ccccc3)CC2)cc1)c1cccs1` [MMV019670] here?
Answer: non-toxic N. caninum actives
